Consider one compound from US20020055528A1, “Artemisinin analogs having antimalarial, antiproliferative, and antitumor activities and chemoselective methods of making the same” (priority 1999, published 2002).

Structures are written as SMILES.

The subject of one data set is P. falciparum. The note with it: two Hanian strains; compared with chloroquine; cited from earlier work.
Data set [1] deals with P. vivax and P. falciparum. The note with it: 2099 cases of malaria, different dosage forms; cited from earlier work.
In another data set the test system is 60 cell line panel. The settings on record: 60 lines, nine subpanels; later anticancer studies; cited from earlier work.
The test system of a further data set is P388 leukemia. The note with it: NCI Report on NSC 369397; cited from earlier work.
For data set [2] the following is noted: cited from earlier work.
Data set [3] has as its system chloroquine-sensitive P. falciparum (NF54). Description: Antimalarial screening, [3H]hypoxanthine incorporation. It is filed as cell-based, Plasmodium falciparum. The note with it: Plasmodium falciparum, NF54, chloroquine-sensitive P. falciparum (NF54); read-out: IC50. Here is the method:
Activity was determined by measuring the incorporation of [^3H]hypoxanthine, by the methods of Desjardins and Milhouse, with the following modifications, see […].; Haynes, […]. Antimicrob. Agents Chemother., 16: 710 (1979); Milhous, W. K.; Weatherly, […].; Antimicrob. Agents Chemother., 27: 525 (1985). […] Calbiochem #391338), 27 mM NaHCO3 (Gibco BRL # 11810-025), and 10% heat-inactivated human type O+serum (Interstate Blood Bank, Inc.), under 3% O2, 4% CO2, and 93% N2-Parasitemia was maintained at 0.05-3% and doubling time at approximately 15 hours by twice weekly change of medium and replenishment with fresh erythrocytes. […] Sigma-Aldrich #27,043-1). DMSO solutions were diluted 500-fold in medium, serially diluted in 0.2% DMSO in medium (to maintain constant solvent concentration), then 100 μL aliquots were pipetted into microtiter plate wells (Costar3595). […] Cells were harvested (Brandel MB-48R) onto GF-C glass filters (Brandel). The filters were washed five times with 3 mL water per sample spot, dried under a heat lamp, and counted (Beckman Model LS-6500) in scintillation cocktail (ICN Cytoscint). Decays per minute (dpm) values were downloaded and analyzed (Power Macintosh 7200/90; Microsoft Excel 5.0), to yield the mean and standard deviation at each drug concentration.

Usually IC50 stands for the midpoint of a concentration-inhibition curve. Consider `C[C@@H]1CC[C@H]2[C@@H](C)C(=O)O[C@@H]3O[C@]4(C)CC[C@@H]1[C@]32OO4` [Artemisinin, artemisinin], for which, in the data set on P. falciparum, the potency in words result is recorded as “comparable to that of chloroquine”. Moreover, the clinical outcome in data set [1] is given as “clinical cure of all patients”. The “anticancer activity in words” value with 60 cell line panel is given as “very little anticancer activity”. The activity in words result in the data set on P388 leukemia was “inactive”. Further, the “solubility in water in words” value in data set [2] is given as “insolubility in water”. For the same compound, the IC50 in data set [3] amounted to 10 nM.
